In this test the target is T1, PLK1 (Homo sapiens, UniProt P53350).
T1 construct: endogenous in cells; host or cells: HeLa
Put plainly: PLK1 protein degradation in HeLa cells, Western blotting (PLK1/GAPDH ratio). It counts as cell-based. Particulars: 6 hours compound incubation; for DC50: measured only if the grade of Dmax is A or B; for Dmax: thymidine block and release, 10 points three-fold from 3 μM, PLK1 to GAPDH ratio. The source says: The HeLa cell line was purchased from Korea Cell Line Bank (KCLB), Seoul, Korea. The passage in cell culture was maintained at P115 to P125.
For cell culture, DMEM (Gibco, Cat. No. 1195-65; Lot. No. 2085318), FBS (Gibco, Cat. No. 16000-044; Lot. No. 2097593), Penicillin/Streptomycin (PS) (Gibco, Cat. No. 15140-122; Lot. No. 2058855), 100 mm^2 cell culture dish (SPL, Cat. No. 20100), 150 mm^2 cell culture dish (SPL, Cat. No. 20150), 12-well culture plate (SPL, Cat. No. 30012), PBS pH 7.4 (Gibco, Cat. No. 10010-023; Lot. No. 2085080), TrypLE™ Express (Gibco, Cat. No. 12605-010; Lot No. 2070638), Counting Chamber (Hematocytometer) (Hirschmann, Cat. No. 8100204), and 0.4% Trypan Blue Solution (DYNEBIO, Cat. No. CBT3710; Lot. No. 20190723) were used.
2×10^5 cells were seeded for each well of a 12-well plate (SPL), and the cells were cultured in the culture medium in a total volume of 2 ml.
The compounds of Examples were completely dissolved in DMSO and used in the experiment, and thymidine was completely dissolved in DW and used in the experiment. For thymidine block, the products were treated with 2 mM of thymidine (Sigma-Aldrich Cat. No. T9250-5G) and then incubated for 24 hours.
For release and chemical treatment, the medium was suctioned and washed 3 times with 1×PBS. Complete media was added, followed by incubation for 4 hours in a CO2 incubator. Each compound was diluted three folds from the highest concentration of 3 μM to the lowest concentration in 10 points and then incubated for 6 hours again.
For SDS-PAGE and Western blotting, 1×RIPA lysis buffer (Rockland, Cat. No. MB-030-0050; Lot no. 39751), 100× Protease Inhibitor Cocktail (Quartett, Cat. No. PPI1015; Lot no. PCO50038424), Pierce™ BCA protein assay kit (ThermoScientific, Cat. No. 23225; Lot no. UC276876), albumin standard (ThermoScientific, Cat. No. 23209; Lot no. UB269561), 4-15% Mini-PROTEAN TGX stain-free gel (Bio-rad, Cat. No. 4568085; Lot no. L007041B), 10× Tris/Glycine/SDS buffer (Bio-rad, Cat. No. 1610732; Lot no. 10000044375B); 10×TBS (Bio-rad, Cat. No. 1706435; Lot no. 1000045140B), 10% Tween 20 (Cat. No. 1610781; Lot no. L004152B), Color protein standard broad range (NEB, Cat. No. P7719S; Lot no. 10040349), 4× Laemmli sample buffer (Bio-rad, Cat. No. 1610747; Lot no. L004133B), β-mercaptoethanol (Sigma-Aldrich, Cat. No. M3148; Lot no. 60-24-2), SuperBlock™ T20 (TBS) blocking buffer (ThermoScientific, Cat. No. 37536; Lot no. UC282578), 1M sodium azide solution (Sigma-Aldrich, Cat. No. 08591-1 mL-F; Lot no. BCBV4989), α-Rabbit pAb to Ms IgG (abcam, Cat. No. ab97046; Lot no. GR3252115-1), α-Goat pAb to Rb IgG (CST, Cat. No. 7074S; Lot no. 28), α-GAPDH (abcam, Cat. No. ab8245; Lot no. GR3275542-2), α-Plk1 (CST, Cat. No. 208G4), α-BRD4 (CST, Cat. No. 13440S), ECL™ Prime western blotting reagents (GE Healthcare, Cat. No. RPN2232; Lot no. 17001655), Ponceau S solution (Sigma-Aldrich, Cat. No. P7170; Lot no. SLBV4112), Difco™ Skim milk (BD, Cat. No. 232100; Lot no. 8346795), and iBlot® 2 NC Regular stacks (Invitrogen, Cat. No. IB323001; Lot no. 2NR110619-02) were used.
For cell harvesting, the cells were first separated from the plate using trypsin and then washed with the medium and PBS. Specifically, the medium was suctioned off and washed with 1 mL of PBS, and PBS was suctioned off. The cells were treated with 0.5 mL TrypLE™ Express at 37° C. for 7 minutes to separate the cells, and then 0.5 mL of complete medium was added to collect 1 mL of cell culture solution. Then, 1 mL of the cell collection solution was centrifuged at 8,000 rpm for 120 seconds, and the supernatant was removed. After washing with 0.2 mL of PBS, the PBS was removed.
For cell lysis, a lysis buffer was added and cell debris was removed to obtain a cell lysate. Specifically, the cells were treated with 70 μL of 1×RIPA buffer containing a protease inhibitor and incubated for 30 minutes on ice. Then, the cells were centrifuged at 4° C. and 15,000 rpm for 10 minutes to obtain a cell lysate. […]

Where two headings read alike, the source gives them in different places. A value given as a limit tells only on which side of the number the result lay.

T1 sequence (P53350 whole entry): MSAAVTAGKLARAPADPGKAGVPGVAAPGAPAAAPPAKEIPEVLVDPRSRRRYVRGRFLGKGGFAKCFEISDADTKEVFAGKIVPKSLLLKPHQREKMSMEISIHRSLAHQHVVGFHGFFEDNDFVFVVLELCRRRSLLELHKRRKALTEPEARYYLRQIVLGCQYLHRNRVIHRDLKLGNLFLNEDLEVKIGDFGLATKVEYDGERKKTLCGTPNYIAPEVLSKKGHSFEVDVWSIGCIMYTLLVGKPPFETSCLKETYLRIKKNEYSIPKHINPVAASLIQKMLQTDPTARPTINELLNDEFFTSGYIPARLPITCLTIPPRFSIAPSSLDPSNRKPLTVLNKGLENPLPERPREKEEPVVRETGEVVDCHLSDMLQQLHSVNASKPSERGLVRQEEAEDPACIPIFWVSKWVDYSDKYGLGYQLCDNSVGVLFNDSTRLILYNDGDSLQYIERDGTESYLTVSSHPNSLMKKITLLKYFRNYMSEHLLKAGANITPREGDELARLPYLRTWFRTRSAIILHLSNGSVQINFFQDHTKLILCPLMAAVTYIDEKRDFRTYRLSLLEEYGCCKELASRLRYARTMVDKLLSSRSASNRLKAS

In general, DC50 refers to the midpoint of the concentration-degradation curve. What is called Dmax is the greatest extent of degradation seen. On to `COc1cc(C(=O)N[C@H]2CCN(C(=O)CCC(=O)N3CC4(C3)CN(c3cccc5c3C(=O)N(C3CCC(=O)NC3=O)C5=O)C4)C2)c(F)cc1Nc1ncc2c(n1)N(C1CCCC1)CC(F)(F)C(=O)N2C` (stereo partly drawn) [Compound 148, 4-((9-cyclopentyl-7,7-difluoro-5-methyl-6-oxo-6,7,8,9-tetrahydro-5H-pyrimido[4,5-b][1,4]diazepin-2-yl)amino)-N-((3S)-1-(4-(6-(2-(2,6-dioxopiperidin-3-yl)-1,3-dioxoisoindolin-4-yl)-2,6-diazaspiro[3.3]heptan-2-yl)-4-oxobutanoyl)pyrrolidin-3-yl)-2-fluoro-5-methoxybenzamide], for which the DC50 was no more than 50 nM. Also, the Dmax (read-out: Dmax) was no less than 80%.

For the molecule `COc1cc(C(=O)NC2CCN(CCOCCOCCOCCOCCOCC(=O)N[C@H](C(=O)N3C[C@H](O)C[C@H]3C(=O)NCc3ccc(-c4scnc4C)cc3)C(C)(C)C)CC2)c(F)cc1Nc1ncc2c(n1)N(C1CCCC1)CC(F)(F)C(=O)N2C` [Example 83], the Dmax result was “C (C: less than 60%)”.

Take `COc1cc(C(=O)N[C@H]2CCN(CC(=O)NCCOCCNc3cccc4c3C(=O)N(C3CCC(=O)NC3=O)C4=O)C2)c(F)cc1Nc1ncc2c(n1)N(C1CCCC1)CC(F)(F)C(=O)N2C` (stereo partly drawn) [Compound 121, 4-((9-cyclopentyl-7,7-difluoro-5-methyl-6-oxo-6,7,8,9-tetrahydro-5H-pyrimido[4,5-b][1,4]diazepin-2-yl)amino)-N-((3S)-1-(2-((2-(2-((2-(2,6-dioxopiperidin-3-yl)-1,3-dioxoisoindolin-4-yl)amino)ethoxy)ethyl)amino)-2-oxoethyl)pyrrolidin-3-yl)-2-fluoro-5-methoxybenzamide]: the DC50 is no more than 50 nM. For the same molecule, the Dmax (read-out: Dmax) was no less than 80%.

Regarding `COc1cc(C(=O)NCCOCCOCCNc2cccc3c2C(=O)N(C2CCC(=O)NC2=O)C3=O)c(F)cc1Nc1ncc2c(n1)N(C1CCCC1)CC(F)(F)C(=O)N2C` (stereo not shown) [Compound 152, 4-((9-cyclopentyl-7,7-difluoro-5-methyl-6-oxo-6,7,8,9-tetrahydro-5H-pyrimido[4,5-b][1,4]diazepin-2-yl)amino)-N-(2-(2-(2-((2-(2,6-dioxopiperidin-3-yl)-1,3-dioxoisoindolin-4-yl)amino)ethoxy)ethoxy)ethyl)-2-fluoro-5-methoxybenzamide], the DC50 was no more than 50 nM. In addition, the Dmax (read-out: Dmax) was no less than 80%.

For the molecule `COc1cc(C(=O)N[C@H]2CCN(C(=O)CCCC(=O)N3CCN(c4ccc5c(c4)C(=O)N(C4CCC(=O)NC4=O)C5=O)CC3)C2)c(F)cc1Nc1ncc2c(n1)N(C1CCCC1)CC(F)(F)C(=O)N2C` (stereo partly drawn) [Compound 147, 4-((9-cyclopentyl-7,7-difluoro-5-methyl-6-oxo-6,7,8,9-tetrahydro-5H-pyrimido[4,5-b][1,4]diazepin-2-yl)amino)-N-((3S)-1-(5-(4-(2-(2,6-dioxopiperidin-3-yl)-1,3-dioxoisoindolin-5-yl)piperazin-1-yl)-5-oxopentanoyl)pyrrolidin-3-yl)-2-fluoro-5-methoxybenzamide], the half-maximal degradation concentration (DC50) is no more than 500 nM. In addition, the Dmax (read-out: Dmax) was in the range of 60 to 80%.

For `COc1cc(C(=O)NC2CCN(CC(=O)NCCOCCOCCOCCNc3cccc4c3C(=O)N(C3CCC(=O)NC3=O)C4=O)CC2)c(F)cc1Nc1ncc2c(n1)N(C1CCCC1)CC(F)(F)C(=O)N2C` (stereo not shown) [Compound 36, 4-((9-cyclopentyl-7,7-difluoro-5-methyl-6-oxo-6,7,8,9-tetrahydro-5H-pyrimido[4,5-b][1,4]diazepin-2-yl)amino)-N-(1-(14-((2-(2,6-dioxopiperidin-3-yl)-1,3-dioxoisoindolin-4-yl)amino)-2-oxo-6,9,12-trioxa-3-azatetradecyl)piperidin-4-yl)-2-fluoro-5-methoxybenzamide], the DC50 is no more than 50 nM. The Dmax (read-out: Dmax) is no less than 80%.

With `COc1cc(C(=O)NCCOCCCOCCNc2cccc3c2C(=O)N(C2CCC(=O)NC2=O)C3=O)c(F)cc1Nc1ncc2c(n1)N(C1CCCC1)CC(F)(F)C(=O)N2C` (stereo not shown) [Compound 156, 4-((9-cyclopentyl-7,7-difluoro-5-methyl-6-oxo-6,7,8,9-tetrahydro-5H-pyrimido[4,5-b][1,4]diazepin-2-yl)amino)-N-(2-(3-(2-((2-(2,6-dioxopiperidin-3-yl)-1,3-dioxoisoindolin-4-yl)amino)ethoxy)propoxy)ethyl)-2-fluoro-5-methoxybenzamide], the DC50 is no more than 50 nM. The Dmax (read-out: Dmax) was no less than 80%.

Turning to `COc1cc(C(=O)NC2CCN(CC3CCN(c4ccc5c(c4)C(=O)N(C4CCC(=O)NC4=O)C5=O)CC3)CC2)c(F)cc1Nc1ncc2c(n1)N(C1CCCC1)CC(F)(F)C(=O)N2C` (stereo not shown) [Compound 67, 4-((9-cyclopentyl-7,7-difluoro-5-methyl-6-oxo-6,7,8,9-tetrahydro-5H-pyrimido[4,5-b][1,4]diazepin-2-yl)amino)-N-(1-((1-(2-(2,6-dioxopiperidin-3-yl)-1,3-dioxoisoindolin-5-yl)piperidin-4-yl)methyl)piperidin-4-yl)-2-fluoro-5-methoxybenzamide], the DC50 was no more than 500 nM. Also, the Dmax (read-out: Dmax) lay within 60 to 80%.

With `COc1cc(C(=O)NC2CCN(CCc3ccc(CC(=O)Nc4cccc5c4C(=O)N(C4CCC(=O)NC4=O)C5=O)cc3)CC2)c(F)cc1Nc1ncc2c(n1)N(C1CCCC1)CC(F)(F)C(=O)N2C` (stereo not shown) [Compound 42, 4-((9-cyclopentyl-7,7-difluoro-5-methyl-6-oxo-6,7,8,9-tetrahydro-5H-pyrimido[4,5-b][1,4]diazepin-2-yl)amino)-N-(1-(4-(2-((2-(2,6-dioxopiperidin-3-yl)-1,3-dioxoisoindolin-4-yl)amino)-2-oxoethyl)phenethyl)piperidin-4-yl)-2-fluoro-5-methoxybenzamide], the DC50 is greater than 500 nM. Besides, under “read-out: Dmax”, the Dmax lay within 60 to 80%.

As to `COc1cc(C(=O)N[C@@H]2CCN(C(=O)CCCN3CCN(c4ccc5c(c4)C(=O)N(C4CCC(=O)NC4=O)C5=O)CC3)C2)c(F)cc1Nc1ncc2c(n1)N(C1CCCC1)CC(F)(F)C(=O)N2C` (stereo partly drawn) [Compound 138, 4-((9-cyclopentyl-7,7-difluoro-5-methyl-6-oxo-6,7,8,9-tetrahydro-5H-pyrimido[4,5-b][1,4]diazepin-2-yl)amino)-N-((3R)-1-(4-(4-(2-(2,6-dioxopiperidin-3-yl)-1,3-dioxoisoindolin-5-yl)piperazin-1-yl)butanoyl)pyrrolidin-3-yl)-2-fluoro-5-methoxybenzamide], the DC50 is no more than 50 nM. In addition, the Dmax (read-out: Dmax) is no less than 80%.

For the origin of these results see patent publication US20230372498A1, “PLK1 SELECTIVE DEGRADATION INDUCING COMPOUND” (UPPTHERA, priority 2020, published 2023).
